Some test systems named below: A549 NSCLC; ACHN renal; HL-60(TB) leukemia; HOP-92 NSCLC; MDA-MB-231 breast; NCI-H226 lung; NCI-H23 lung; SK-MEL-5 melanoma; TK-10 renal; UACC-257 melanoma.
Assay in all cases: DTP human tumour cell line panel, 48 h

The text below walks through data of PubChem BioAssay (NCI).

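The compound was tested at five concentrations on cells cultured in 96-well plates, with a 48-hour exposure period. GI50 is the concentration that inhibits growth by half. Definition used: TGI = concentration required for complete inhibition of growth.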

`O=C1c2cccnc2C(=O)c2c1c(C(=O)OCCc1ccccn1)c1ccccn21`: the GI50 – broadly, the concentration that inhibits growth by half – in the assay on A549 NSCLC is 0.248 µM; in the assay with ACHN renal, less than 0.01 µM; in the assay on HL-60(TB) leukemia, 0.783 µM; in the assay on HOP-92 NSCLC, 0.121 µM; in the assay with MDA-MB-231 breast, 1.48 µM; with NCI-H226 lung it was 0.0277 µM. In addition, the GI50 was 0.0218 µM with NCI-H23 lung, 0.0332 µM in the assay on SK-MEL-5 melanoma, 0.34 µM in the assay on TK-10 renal and 0.152 µM in the assay with UACC-257 melanoma. In addition, the TGI (usually the concentration at which net growth stops) with A549 NSCLC is 1.56 µM; with ACHN renal it was 1.22 µM; in the assay on HL-60(TB) leukemia, 5.93 µM; in the assay with HOP-92 NSCLC, 5.58 µM; with MDA-MB-231 breast, greater than 100 µM; in the assay with NCI-H226 lung, 0.472 µM. Moreover, the TGI in the assay with NCI-H23 lung was determined as 1.06 µM; in the assay on SK-MEL-5 melanoma, 0.299 µM; in the assay with TK-10 renal it was 2.19 µM; in the assay with UACC-257 melanoma, 0.583 µM.

As for `CCOC(=O)c1cn(CC)c2ccc3ccsc3c2c1=O`, the TGI in the assay on A549 NSCLC, with ACHN renal, in the assay with HL-60(TB) leukemia, in the assay on HOP-92 NSCLC, in the assay with MDA-MB-231 breast and in the assay on NCI-H226 lung was greater than 100 µM each time. The TGI in the assay with NCI-H23 lung, with SK-MEL-5 melanoma, with TK-10 renal and with UACC-257 melanoma was greater than 100 µM each time.

For `CCCCCCc1cc2cc(-c3csc(/C=C/c4ccccc4)n3)c(=O)oc2cc1O`, the GI50 is 4.27 µM with A549 NSCLC; 4.19 µM with ACHN renal; 4.79 µM with HL-60(TB) leukemia; 4.32 µM in the assay on HOP-92 NSCLC; 8.82 µM with MDA-MB-231 breast; 15.2 µM with NCI-H226 lung. Also, the GI50 in the assay on NCI-H23 lung was 3.09 µM; in the assay with SK-MEL-5 melanoma, 19.3 µM; in the assay with TK-10 renal it was 29 µM; with UACC-257 melanoma, 40.4 µM. The concentration for total growth inhibition (TGI) in the assay on A549 NSCLC was determined as 19 µM; in the assay with ACHN renal, 15.2 µM; with HL-60(TB) leukemia, 30.4 µM; in the assay on HOP-92 NSCLC, 17.7 µM; in the assay with MDA-MB-231 breast, 31.1 µM; with NCI-H226 lung it was 33.4 µM. Further, the total growth inhibition concentration (TGI) in the assay on NCI-H23 lung was 10.1 µM; with SK-MEL-5 melanoma it was 49.3 µM; in the assay with TK-10 renal it was 69.5 µM; in the assay with UACC-257 melanoma it was greater than 100 µM.

Turning to `COc1ccc(/C=C/C(=O)c2ccc(Nc3nc(Nc4ccc(F)cc4)nc(Nc4ccc(Cl)cc4)n3)cc2)cc1`, the GI50 in the assay with A549 NSCLC is greater than 100 µM; in the assay with ACHN renal, greater than 100 µM; in the assay on HL-60(TB) leukemia, 84 µM; with HOP-92 NSCLC, 31.1 µM; in the assay with MDA-MB-231 breast, 29.5 µM; in the assay on NCI-H226 lung it was greater than 100 µM. Besides, the GI50 with NCI-H23 lung was greater than 100 µM; with SK-MEL-5 melanoma, 1.03 µM; in the assay on TK-10 renal, greater than 100 µM; in the assay with UACC-257 melanoma, greater than 100 µM. The total growth inhibition concentration (TGI) with A549 NSCLC was greater than 100 µM; with ACHN renal it was greater than 100 µM; with HL-60(TB) leukemia, greater than 100 µM; in the assay with HOP-92 NSCLC, 88.7 µM; with MDA-MB-231 breast it was greater than 100 µM; with NCI-H226 lung, greater than 100 µM. Besides, the TGI was greater than 100 µM in the assay on NCI-H23 lung, 27.2 µM in the assay on SK-MEL-5 melanoma, greater than 100 µM in the assay on TK-10 renal and greater than 100 µM in the assay on UACC-257 melanoma.

`CCOc1cc(/C=C/C(=O)C(C(=O)/C=C/c2ccc(OC(=O)CNc3nnc(C)s3)c(OCC)c2)C(=O)CNc2nnc(C)s2)ccc1OC(=O)CNc1nnc(C)s1`: the GI50 in the assay on A549 NSCLC is 2.36 µM; in the assay on ACHN renal it was 1.77 µM; with HL-60(TB) leukemia, 0.554 µM; in the assay on HOP-92 NSCLC, 2.13 µM; in the assay with MDA-MB-231 breast it was 1.99 µM; with NCI-H226 lung it was 1.92 µM. For the same molecule, the GI50 with NCI-H23 lung was 1.97 µM; in the assay with SK-MEL-5 melanoma, 1.71 µM; in the assay with TK-10 renal, 3.49 µM; with UACC-257 melanoma, 2.81 µM. The TGI in the assay with A549 NSCLC was found to be 7.44 µM; in the assay on ACHN renal it was 3.42 µM; in the assay on HL-60(TB) leukemia, 3.47 µM; with HOP-92 NSCLC, 6.6 µM; in the assay on MDA-MB-231 breast it was 6.15 µM; with NCI-H226 lung, 4.54 µM. Moreover, the concentration for total growth inhibition (TGI) with NCI-H23 lung is 5.58 µM; in the assay on SK-MEL-5 melanoma, 3.29 µM; with TK-10 renal, 14.4 µM; with UACC-257 melanoma, 9.54 µM.

Turning to `FC(F)(F)c1ccc(-c2ncc(-c3ccc(C(F)(F)F)cc3)c(NCc3cc(C(F)(F)F)cc(C(F)(F)F)c3)n2)cc1`, the GI50 in the assay with A549 NSCLC was 4.05 µM; in the assay with ACHN renal it was 3.91 µM; in the assay on HL-60(TB) leukemia, 4.79 µM; in the assay with HOP-92 NSCLC it was 1.7 µM; with MDA-MB-231 breast, 3.81 µM; in the assay with NCI-H226 lung, 3.76 µM. In addition, the GI50 was 3.24 µM with NCI-H23 lung, 16.5 µM with SK-MEL-5 melanoma, 7.51 µM with TK-10 renal and 5.29 µM in the assay on UACC-257 melanoma. In addition, the TGI was greater than 100 µM with A549 NSCLC; greater than 100 µM with ACHN renal; 36.2 µM with HL-60(TB) leukemia; 5.05 µM in the assay on HOP-92 NSCLC; 14.8 µM with MDA-MB-231 breast; 83.8 µM in the assay with NCI-H226 lung. Further, the TGI with NCI-H23 lung is 23.8 µM; in the assay on SK-MEL-5 melanoma, 41.8 µM; in the assay with TK-10 renal it was greater than 100 µM; in the assay with UACC-257 melanoma, 44.4 µM.
